Measured values reported in patent US20110280881A1, “NOVEL ANTI-HSP90 MONOCLONAL ANTIBODY” (RIKEN, priority 2010, published 2011).

Experiments:
DC2.4 cells = assay: Influence of HSP90 inhibitors on expression of cell surface HSP90 (FACS with 6H8); assay type: cell-based; conditions: DC2.4, 37° C., 3 hours; OVA 1 mg/ml, radicicol 25 μM, novobiocin 400 μM
Procedure: DC2.4 cells were incubated in the presence of OVA (in FIG. 4A, i; 1 mg/ml), radicicola (in FIG. 4A, ii; 25 μM) or novobiocin (in FIG. 4A, iii; 400 μM) with 5% CO2 at 37° C. for 3 hours. Next, the cells were cooled on ice. To detect cell surface HSP90, the cells were stained with the 6H8 antibody and then analyzed by FACS.

[1] = tested on: DC2.4 cells and mouse GM-CSF-dependent BMDC; assay: Influence of cytokines on expression of cell surface HSP90 (FACS with 6H8); assay type: cell-based; conditions: for expression of cell surface HSP90 after IFN treatment: DC2.4 and mouse GM-CSF-dependent BMDC, 24 hours, IFNα 500 U/ml, IFNβ 500 U/ml, IFNγ 50 ng/ml; for MFI of cell surface HSP90 after cytokine treatment versus negative control: BMDC, cytokines 100 ng/ml or 10 ng/ml
Procedure: In view of the possibility that cytokines are variation factors for the expression of cell surface HSP90, the influences of various cytokines on the expression of cell surface HSP90 were examined as described below.
The solid bars indicate the MFI for BMDC incubated in the presence of high concentrations of IFNs (as in FIG. 5B) or other cytokines (100 ng/ml); the grey bars indicate the MFI for BMDC incubated in the presence of low concentrations of IFNs (as in FIG. 5B) or other cytokines (10 ng/ml). The open bars indicate the MFI for BMDC incubated in the absence of the cytokines as negative controls.

OT-I CD8+ T cells [2] = assay: In vitro cross-presentation assay with BMDC of normal and FcRγ KO mouse; assay type: cell-based; conditions: BMDC pulsed 3 hours, co-culture with OT-I CD8+ T cells, IFNγ ELISA
Procedure: (1) A bone marrow-derived dendritic cells (BMDCs) were established from a normal mouse and an FcRγ KO mouse (supplied by Professor Akira Shibuya, Immunology, Life System Medical Sciences, Majors of Medical Sciences, Graduate School of Comprehensive Human Sciences, University of Tsukuba) as described below. Bone marrow was recovered from a mouse femur and tibia, and 1×10^6 cells each were cultured in a 24-well plate using 2 ml/well of a complete RPMI containing 20 ng/ml recombinant mouse GM-CSF (R&D). Half of the medium was exchanged for a fresh medium on day 3 of cultivation, and the cells obtained on day 5 of cultivation were used as the BMDC. (2) BMDCs at Day 5 induced in a GM-CSF-dependent manner was stained with biotin-6H8 (2.5 μg/ml) and streptavidin-APC (0.2 μg/ml), and its fluorescence was determined using FACS Canto (BD).
(1) A pellet of 1×10^6 BMDC cells at Day 5 induced in a GM-CSF-dependent manner were prepared in a 15-ml tube. After adding 400 μl of an antigen (6H8-OVA, OVA, or OVA257-264) thereto, the tube was incubated with 5% CO2 at 37° C. for 3 hours. The cells were fixed in 0.5% para-formaldehyde, after which the cells were washed with 0.1 M glycine and then with RPMI; thereafter, the density was adjusted to 1×10^5 cells/ml. (2) Concurrently, OT-I CD8^+ T cells were purified and the density was adjusted to 1×10^5 cells/ml. […]

OT-I CD8+ T cells [3] = assay: In vivo cross-presentation assay with free 6H8 antibody administered concurrently; set-up: species or system mouse; conditions: antigen 0.3 μg with free 6H8 antibody 30 μg, 72 hours
Procedure: (1) CFSE-labeled CD8^+ T cells of an OT-I/CD45.1 mouse were transferred to recipient mice from the tail vein, with 6H8-OVA [or 6H8 (F(ab′)2)—OVA, or OVA, or IgG2a-OVA] (0.3 μg) and the free 6H8 antibody [or 6H8 (F(ab′)2) or IgG2a] (30 μg) administered from the tail vein concurrently. (2) 72 hours later, the spleen was recovered from each mouse, and 2×10^6 splenocytes were stained with the PE-CD45.1 antibody in a 96-well round-bottomed plate for 30 minutes (while cooling on ice). (3) The CFSE intensity of CD45.1-positive cells (OT-I CD8^+ T cells) was determined using FACS Canto (BD).

Row | Molecule | influence on expression level of surface HSP90 (DC2.4 cells) | MFI of cell surface HSP90 after cytokine treatment versus negative control [1] | other results
1 | CO[C@@H]1[C@@H](OC(N)=O)[C@@H](O)[C@H](Oc2ccc3c(O)c(NC(=O)c4ccc(O)c(CC=C(C)C)c4)c(=O)oc3c2C)OC1(C)C [novobiocin] | no or almost no influence |  | 
2 | C[C@@H]1C[C@H]2O[C@@H]2/C=C\C=C\C(=O)Cc2c(Cl)c(O)cc(O)c2C(=O)O1 [radicicol] | no or almost no influence |  | 
3 | IFNα |  |  | expression of cell surface HSP90 after IFN treatment [1]: increased
4 | IFNγ: cytokine |  |  | expression of cell surface HSP90 after IFN treatment [1]: increased
5 | IL-5: cytokine |  | no significant difference from the negative control | 
6 | IL-6: cytokine |  | no significant difference from the negative control | 
7 | IL-15: cytokine |  | no significant difference from the negative control | 
8 | IL-18: cytokine |  | no significant difference from the negative control | 
9 | OVA257-264: major OVA epitope peptide (SIINFEKL) |  |  | cross-presentation potential of FcRγ KO mouse-derived dendritic cells compared with normal mouse-derived dendritic cells (OT-I CD8+ T cells [2]): equivalent
10 | ovalbumin [ovalbumin used as a model antigen] | do not influence |  | enhancing effect by the 6H8 antibody on proliferation reaction of OT-I CD8+ T cells with this antigen (OT-I CD8+ T cells [3]): not noted; cross-presentation potential of FcRγ KO mouse-derived dendritic cells compared with normal mouse-derived dendritic cells (OT-I CD8+ T cells [2]): equivalent
